Experimental data taken from publication PMC6934184, “Selective DNA-PKcs inhibition extends the therapeutic index of localized radiotherapy and chemotherapy” (The Journal of Clinical Investigation, 2019).

Biological target: T1, BMPR1B (ALK6) (Homo sapiens, UniProt O00238)
T1 construct: purchased Thermo Fisher Scientific (Life Technologies) SelectScreen
Experiment: SelectScreen LanthaScreen
Assay type: binding
Conditions: read-out: % displacement
Method in brief: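 Percent values come from Thermo SelectScreen profiling of NU5455, combining activity and binding assays. CSF1R was run in Z'LYTE format at Km app ATP, and CAMK1 in Adapta format with ATP listed at 10.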

T1 sequence (O00238 14-502): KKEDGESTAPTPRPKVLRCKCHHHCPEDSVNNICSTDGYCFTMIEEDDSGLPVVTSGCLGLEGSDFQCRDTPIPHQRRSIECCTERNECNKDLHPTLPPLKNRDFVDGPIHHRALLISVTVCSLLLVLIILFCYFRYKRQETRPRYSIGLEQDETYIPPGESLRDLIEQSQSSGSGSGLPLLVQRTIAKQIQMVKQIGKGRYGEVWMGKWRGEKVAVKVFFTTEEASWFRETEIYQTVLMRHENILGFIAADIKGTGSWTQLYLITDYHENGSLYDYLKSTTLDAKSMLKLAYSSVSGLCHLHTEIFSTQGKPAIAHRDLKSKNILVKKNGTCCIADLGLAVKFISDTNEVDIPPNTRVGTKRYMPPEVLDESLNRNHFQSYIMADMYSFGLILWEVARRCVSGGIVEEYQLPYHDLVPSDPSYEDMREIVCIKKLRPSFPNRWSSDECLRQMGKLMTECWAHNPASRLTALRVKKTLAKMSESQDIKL

How did the inhibition at 1 µM turn out when `CN(C(=O)CN1CCOCC1)c1ccc2sc3c(-c4cccc5c(=O)cc(N6CC7CCC(C6)O7)oc45)cccc3c2c1` [NU5455] was run?
The inhibition at 1 µM was 14.5%.
